# Experimental data from ChEMBL document CHEMBL1154344, “New quaternary ammonium oxicam derivatives: synthesis and in vitro antiosteoarthritis evaluation” (2010).
# Activity calls are given as the source filed them. The rule behind the calls is not given here.
# Assays:
# Bos taurus [1] = species: Bos taurus; assay: Induction of TGF receptor type 1 mRNA expression in bovine articular chondrocytes at 10 uM after 5 days by RT-PCR analysis; format: functional, cell-based
# Bos taurus [2] = species: Bos taurus; assay: Induction of TGF-beta1 mRNA expression in bovine articular chondrocytes at 10 uM after 5 days by RT-PCR analysis in presence of IL-1; format: functional, cell-based
# Bos taurus [3] = species: Bos taurus; assay: Induction of TGF receptor type 1 mRNA expression in bovine articular chondrocytes at 10 uM after 5 days by RT-PCR analysis in presence of IL-1; format: functional, cell-based
# Bos taurus [4] = species: Bos taurus; assay: Induction of TGF receptor type 1 mRNA expression in bovine articular chondrocytes at 1 uM after 5 days by RT-PCR analysis in presence of IL-1; format: functional, cell-based
# [5] = Induction of TGF-beta2 mRNA expression in bovine articular chondrocytes at 10 uM after 5 days by RT-PCR analysis relative to control; format: functional, Bos taurus
# Bos taurus [6] = species: Bos taurus; assay: (§1) Antiosteoarthritis activity in bovine articular chondrocytes assessed as inhibition of IL1-induced reduction of aggrecan mRNA expression at 10 uM after 5 days by Northern blot analysis relative to control; format: functional
# [7] = as §1; format: functional, Bos taurus; set-up: scale not given: the % may be the effect or the level left
# Bos taurus [8] = species: Bos taurus; assay: Induction of TGF-beta1 mRNA expression in bovine articular chondrocytes at 10 uM after 5 days by RT-PCR analysis; format: functional, cell-based
# Bos taurus [9] = species: Bos taurus; assay: Induction of TGF-beta1 mRNA expression in bovine articular chondrocytes at 1 uM after 5 days by RT-PCR analysis; format: functional, cell-based
# Bos taurus [10] = species: Bos taurus; assay: Induction of TGF-beta1 mRNA expression in bovine articular chondrocytes at 1 uM after 5 days by RT-PCR analysis in presence of IL-1; format: functional, cell-based
# [11] = (§2) Antiosteoarthritis activity in bovine articular chondrocytes assessed as induction of aggrecan mRNA expression at 0.1 uM after 5 days by Northern blot analysis relative to control; format: functional, Bos taurus
# [12] = Induction of TGF-beta2 mRNA expression in bovine articular chondrocytes at 1 uM after 5 days by RT-PCR analysis relative to control; format: functional, Bos taurus
# Bos taurus [13] = species: Bos taurus; assay: (§3) Antiosteoarthritis activity in bovine articular chondrocytes assessed as inhibition of IL1-induced reduction of aggrecan mRNA expression at 0.1 uM after 5 days by Northern blot analysis relative to control; format: functional
# Bos taurus [14] = species: Bos taurus; assay: Induction of TGF receptor type 1 mRNA expression in bovine articular chondrocytes at 1 uM after 5 days by RT-PCR analysis; format: functional, cell-based
# Bos taurus [15] = species: Bos taurus; assay: (§4) Antiosteoarthritis activity in bovine articular chondrocytes assessed as inhibition of IL1-induced reduction of aggrecan mRNA expression at 1 uM after 5 days by Northern blot analysis relative to control; format: functional
# [16] = (§5) Antiosteoarthritis activity in bovine articular chondrocytes assessed as induction of aggrecan mRNA expression at 1 uM after 5 days by Northern blot analysis relative to control; format: functional, Bos taurus
# Bos taurus [17] = species: Bos taurus; assay: (§6) Antiosteoarthritis activity in bovine articular chondrocytes assessed as induction of aggrecan mRNA expression at 10 uM after 5 days by Northern blot analysis relative to control; format: functional
# Bos taurus [18] = species: Bos taurus; assay: as §2; format: functional
# Bos taurus [19] = species: Bos taurus; assay: as §5; format: functional
# [20] = Antiosteoarthritis activity in bovine articular chondrocytes assessed as inhibition of IL1-induced reduction of aggrecan mRNA expression at 1 uM after 5 days by RT-PCR analysis relative to control; format: functional; details: Bos taurus, 120 h
# [21] = as §6; format: functional; details: Bos taurus, 120 h; values are per cent of control
# [22] = (§7) Antiosteoarthritis activity in bovine articular chondrocytes assessed as induction of aggrecan mRNA expression at 10 uM after 5 days by RT-PCR analysis relative to control; format: functional, Bos taurus
# Bos taurus [23] = species: Bos taurus; assay: Antiosteoarthritis activity in bovine articular chondrocytes assessed as restoration of IL-1-inuced inhibition of proteoglycans biosynthesis at 0.1 to 10 uM; format: functional, cell-based
# [24] = as §3; format: functional, Bos taurus; set-up: scale not given: the % may be the effect or the level left
# [25] = as §4; format: functional, Bos taurus; set-up: scale not given: the % may be the effect or the level left
# [26] = Induction of TGF receptor type 2 mRNA expression in bovine articular chondrocytes at 10 uM after 5 days by RT-PCR analysis relative to control; format: functional, Bos taurus
# Bos taurus [27] = species: Bos taurus; assay: as §7; format: functional
# [28] = Antiosteoarthritis activity in bovine articular chondrocytes assessed as inhibition of IL1-induced reduction of aggrecan mRNA expression at 0.1 uM after 5 days by RT-PCR analysis relative to control; format: functional; details: Bos taurus, 120 h
# [29] = Induction of TGF receptor type 2 mRNA expression in bovine articular chondrocytes at 1 uM after 5 days by RT-PCR analysis relative to control; format: functional, Bos taurus
SMILES,Activity (Bos taurus [6]),Activity [11] [%],Activity (Bos taurus [13]),Activity (Bos taurus [15]),Activity (Bos taurus [17]),Activity (Bos taurus [18]),Activity (Bos taurus [19]),other results
CN(C)CCCNC(=O)C1=C(O)c2ccccc2S(=O)(=O)N1C [PROPOXICAM],Active,25,Active,Active,–,–,–,Activity (Bos taurus [1]): inactive; Activity (Bos taurus [2]): inactive; Activity (Bos taurus [3]): inactive; Activity (Bos taurus [4]): inactive; Activity [5]: 22%; Activity [7]: 65%; Activity (Bos taurus [8]): inactive; Activity (Bos taurus [9]): inactive; Activity (Bos taurus [10]): inactive; Activity [12]: 31%; Activity (Bos taurus [14]): inactive; Activity [16]: 25%
CC[N+](CC)(CC)CCCNC(=O)C1=C(O)c2ccccc2S(=O)(=O)N1C,inactive,–,inactive,inactive,inactive,inactive,inactive,–
CN1C(C(=O)NCCC[n+]2ccccc2)=C(O)c2ccccc2S1(=O)=O,inactive,–,inactive,inactive,inactive,inactive,inactive,–
CC[N+](C)(CC)CCCNC(=O)C1=C(O)c2ccccc2S(=O)(=O)N1C.[I-],Active,31,Active,Active,–,–,–,"inhibition at 1 µM [20]: 130%; response, % of control at 10 µM [21]: 216%; Activity [22]: 31%; Activity (Bos taurus [23]): Active; Activity [24]: 216%; Activity [25]: 130%"
CC[N+](C)(C)CCCNC(=O)C1=C(O)c2ccccc2S(=O)(=O)N1C,inactive,–,inactive,inactive,inactive,inactive,inactive,–
CN1C(C(=O)NCCC[N+](C)(C)C)=C(O)c2ccccc2S1(=O)=O.[I-],–,–,–,–,–,–,–,Activity [26]: 18%; inhibition at 1 µM [20]: 63%; Activity (Bos taurus [1]): inactive; Activity (Bos taurus [2]): inactive; Activity (Bos taurus [3]): inactive; Activity (Bos taurus [4]): inactive; Activity [5]: 37%; Activity (Bos taurus [8]): inactive; Activity (Bos taurus [9]): inactive; Activity (Bos taurus [10]): inactive; Activity [12]: 30%; Activity (Bos taurus [27]): Active; Activity [22]: 62%; inhibition at 0.1 µM [28]: 150%; Activity [29]: 45%; Activity (Bos taurus [23]): Active; Activity (Bos taurus [14]): inactive
CN1C(C(=O)NCCCC[N+](C)(C)C)=C(O)c2ccccc2S1(=O)=O,inactive,–,inactive,inactive,inactive,inactive,inactive,–
CN1C(C(=O)Nc2ccccn2)=C(O)c2ccccc2S1(=O)=O [PIROXICAM],Active,23,Active,Active,–,–,–,Activity [16]: 37%
